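Interpolation was linear, between the two tested concentrations surrounding the appropriate level; five concentrations were tested over 48 hours in 96-well plates. GI50 marks 50% less growth. TGI denotes the concentration required for complete inhibition of growth.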
Tests used:
Test in all cases: inhibition of tumour cell growth, NCI panel, 48 h
[1] = test system: UACC-62 melanoma
[2] = test system: TK-10 renal
[3] = test system: M14 melanoma
[4] = test system: SF-295 CNS
[5] = test system: IGROV1 ovarian
[6] = test system: UO-31 renal
[7] = test system: COLO 205 colon
[8] = test system: HCC-2998 colon
[9] = test system: HCT-15 colon

Row | Structure (SMILES) | TGI [1] | TGI [2] | TGI [3] | TGI [4] | TGI [5] | TGI [6] | TGI [7] | TGI [8] | TGI [9] | GI50 [1] | GI50 [7] | GI50 [8] | GI50 [2] | GI50 [3] | GI50 [4] | GI50 [9] | GI50 [5] | GI50 [6]
1 | O=C1CCCC1NC(=O)C(F)(F)F (centres undefined) | > 100 µM | > 100 µM | > 100 µM | > 100 µM | > 100 µM | > 100 µM | – | – | – | – | – | – | – | – | – | – | – | –
2 | CCOC(=O)NC(=O)c1cn(CCN2CCN(C(=O)NCCCCCCNC(=O)N3CCN(CCn4cc(C(=O)NC(=O)OCC)c(=O)n(CCN(CC)CC)c4=O)CC3)CC2)c(=O)n(CCC(CC)CC)c1=O | > 100 µM | > 100 µM | > 100 µM | > 100 µM | > 100 µM | > 100 µM | > 100 µM | > 100 µM | > 100 µM | – | – | – | – | – | – | – | – | –
3 | Clc1ccc(SCCCCCCCCCCSc2ccc(Cl)cc2)cc1 | > 100 µM | > 77.9 µM | > 100 µM | > 71.4 µM | > 100 µM | > 100 µM | > 100 µM | > 64.6 µM | > 75.9 µM | – | – | – | – | – | – | – | – | –
4 | O=C1C[C@H]2CC3(CC[C@H]2CN1)OCCO3 | > 100 µM | > 100 µM | > 100 µM | > 100 µM | > 100 µM | > 100 µM | > 100 µM | > 100 µM | > 100 µM | – | – | – | – | – | – | – | – | –
5 | N#CN1CCC=C(c2cc3ccccc3[nH]2)C1 | > 448 µM | > 448 µM | – | > 448 µM | > 448 µM | – | > 448 µM | > 448 µM | > 448 µM | – | – | – | – | – | – | – | – | –
6 | COc1cc(/C=C2/C(=O)NC(Cc3cc(OC)c(OC)c(C)c3OC)C(=O)N2Cc2ccccc2)c(OC)c(C)c1OC (centres undefined) | > 100 µM | > 100 µM | > 100 µM | > 100 µM | > 100 µM | > 100 µM | 35 µM | > 100 µM | – | – | – | – | – | – | – | – | – | –
7 | C[CH2][Sn]([CH2]C)([O]C(=O)c1cccc(F)c1)[O][Sn]([CH2]C)([CH2]C)[O]C(=O)c1cccc(F)c1 | 32.7 µM | 33.8 µM | 31.3 µM | 36.9 µM | > 100 µM | > 100 µM | 32.2 µM | > 100 µM | 43.3 µM | 18.4 µM | 18.3 µM | 76.1 µM | 19.6 µM | 16.9 µM | 18.7 µM | 21 µM | > 100 µM | 49.8 µM
8 | S=C(Nc1ccccc1)N(Cc1ccccc1)c1ccccc1 | 70.7 µM | 80.3 µM | > 100 µM | > 100 µM | > 100 µM | > 100 µM | 51.8 µM | > 100 µM | > 100 µM | – | – | – | – | – | – | – | – | –
9 | CC12CC3CC(C1)CC(N=[N+]=[N-])(C3)C2 | > 100 µM | > 100 µM | > 100 µM | > 100 µM | > 100 µM | > 100 µM | > 100 µM | > 100 µM | – | – | – | – | – | – | – | – | – | –
10 | O=C(/C=C1/NC(=O)CS1)Nc1ccccc1 | > 100 µM | > 100 µM | > 100 µM | > 100 µM | > 100 µM | > 100 µM | > 100 µM | > 100 µM | – | – | – | – | – | – | – | – | – | –
11 | O=C1C[C@@H]2CCCC[C@@H]2C12SCCS2 | > 100 µM | > 100 µM | – | > 100 µM | > 100 µM | > 100 µM | > 100 µM | > 100 µM | > 100 µM | – | – | – | – | – | – | – | – | –
12 | COc1cc(C(=O)CC2(O)C(=O)Nc3c(Cl)cc(Cl)cc32)ccc1O (centres undefined) | – | > 100 µM | > 100 µM | > 100 µM | – | > 100 µM | 83.5 µM | 88.7 µM | > 100 µM | – | – | – | – | – | – | – | – | –
13 | CS/C(c1ccccc1)=[N+](/C)[O-] | > 100 µM | > 100 µM | > 100 µM | > 100 µM | > 100 µM | > 100 µM | > 61.5 µM | > 100 µM | 41.1 µM | – | – | – | – | – | – | – | – | –
14 | Cc1ccc(C2=C(c3ccccc3)C(Br)(c3ccccc3)C(c3ccccc3)=C2c2ccc(C)cc2)cc1 | > 100 µM | > 100 µM | > 100 µM | > 100 µM | > 100 µM | > 100 µM | > 100 µM | – | > 100 µM | – | – | – | – | – | – | – | – | –
15 | Cc1ccc(N2C(=O)/C(=C/c3ccc(N(CCC#N)CCC#N)cc3C)N=C2c2cc([N+](=O)[O-])ccc2Cl)cc1 | > 100 µM | > 100 µM | > 100 µM | > 100 µM | > 100 µM | > 100 µM | > 100 µM | > 100 µM | > 100 µM | – | – | – | – | – | – | – | – | –
16 | [C-]#[N+]C(C)(C)C[C@H]1CC(C)C2CCC(C)C3([N+]#[C-])CCC(=C)C1[C@H]23 (some centres undefined) | 11.5 µM | 21.4 µM | 9.93 µM | 24.1 µM | 47.4 µM | 8.66 µM | 0.65 µM | 14.7 µM | – | – | – | – | – | – | – | – | – | –
17 | CC1=Nn2c(nnc2-c2ccc(N)cc2)NC(C)(C)C1 | > 100 µM | > 100 µM | > 100 µM | > 100 µM | > 100 µM | > 100 µM | > 100 µM | > 100 µM | > 100 µM | – | – | – | – | – | – | – | – | –
